Measured values from ChEMBL document CHEMBL4804281, “STK4 inhibitors for treatment of hematologic malignancies” (2020).
Calls of active or inactive are those of the source. No cut-off for these calls is given here.

Experiments:
MM1.S = experiment: Upregulation of YAP1 protein level in human MM1.S cells at 1 uM measured after 16 hrs by Western blot analysis; type: functional, cell-based
[1] = target: T1, Inhibitor of nuclear factor kappa-B kinase subunit epsilon (Homo sapiens) (UniProt Q14164); experiment: Inhibition of IKKE in human NCI-H929 cells at 10 uM by mass spectroscopic analysis relative to control; type: cell-based
T1 sequence (whole entry): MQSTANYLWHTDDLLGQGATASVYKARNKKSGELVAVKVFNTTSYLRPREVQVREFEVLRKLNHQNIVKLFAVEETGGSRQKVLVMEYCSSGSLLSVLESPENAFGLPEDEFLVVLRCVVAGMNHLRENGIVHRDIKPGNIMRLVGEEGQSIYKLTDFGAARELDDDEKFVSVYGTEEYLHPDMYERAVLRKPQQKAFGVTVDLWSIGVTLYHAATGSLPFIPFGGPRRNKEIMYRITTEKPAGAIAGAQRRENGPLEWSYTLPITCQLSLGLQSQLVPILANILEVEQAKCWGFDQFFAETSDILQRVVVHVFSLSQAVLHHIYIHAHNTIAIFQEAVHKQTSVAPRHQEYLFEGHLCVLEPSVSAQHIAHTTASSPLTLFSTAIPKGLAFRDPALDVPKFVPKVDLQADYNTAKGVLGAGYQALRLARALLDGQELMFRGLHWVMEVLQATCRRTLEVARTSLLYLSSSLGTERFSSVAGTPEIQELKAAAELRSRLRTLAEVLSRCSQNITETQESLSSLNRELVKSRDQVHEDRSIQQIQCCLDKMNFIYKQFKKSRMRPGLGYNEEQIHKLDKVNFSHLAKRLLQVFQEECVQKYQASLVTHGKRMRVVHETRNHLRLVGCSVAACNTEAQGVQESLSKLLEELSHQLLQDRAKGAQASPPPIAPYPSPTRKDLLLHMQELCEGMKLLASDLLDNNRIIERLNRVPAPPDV

[2] = target: Misshapen-like kinase 1 (Homo sapiens) (UniProt Q8N4C8); experiment: Inhibition of MINK in human NCI-H929 cells at 10 uM by mass spectroscopic analysis relative to control; type: cell-based
Sequence of Misshapen-like kinase 1 (Homo sapiens) (Q8N4C8 whole entry, looked up): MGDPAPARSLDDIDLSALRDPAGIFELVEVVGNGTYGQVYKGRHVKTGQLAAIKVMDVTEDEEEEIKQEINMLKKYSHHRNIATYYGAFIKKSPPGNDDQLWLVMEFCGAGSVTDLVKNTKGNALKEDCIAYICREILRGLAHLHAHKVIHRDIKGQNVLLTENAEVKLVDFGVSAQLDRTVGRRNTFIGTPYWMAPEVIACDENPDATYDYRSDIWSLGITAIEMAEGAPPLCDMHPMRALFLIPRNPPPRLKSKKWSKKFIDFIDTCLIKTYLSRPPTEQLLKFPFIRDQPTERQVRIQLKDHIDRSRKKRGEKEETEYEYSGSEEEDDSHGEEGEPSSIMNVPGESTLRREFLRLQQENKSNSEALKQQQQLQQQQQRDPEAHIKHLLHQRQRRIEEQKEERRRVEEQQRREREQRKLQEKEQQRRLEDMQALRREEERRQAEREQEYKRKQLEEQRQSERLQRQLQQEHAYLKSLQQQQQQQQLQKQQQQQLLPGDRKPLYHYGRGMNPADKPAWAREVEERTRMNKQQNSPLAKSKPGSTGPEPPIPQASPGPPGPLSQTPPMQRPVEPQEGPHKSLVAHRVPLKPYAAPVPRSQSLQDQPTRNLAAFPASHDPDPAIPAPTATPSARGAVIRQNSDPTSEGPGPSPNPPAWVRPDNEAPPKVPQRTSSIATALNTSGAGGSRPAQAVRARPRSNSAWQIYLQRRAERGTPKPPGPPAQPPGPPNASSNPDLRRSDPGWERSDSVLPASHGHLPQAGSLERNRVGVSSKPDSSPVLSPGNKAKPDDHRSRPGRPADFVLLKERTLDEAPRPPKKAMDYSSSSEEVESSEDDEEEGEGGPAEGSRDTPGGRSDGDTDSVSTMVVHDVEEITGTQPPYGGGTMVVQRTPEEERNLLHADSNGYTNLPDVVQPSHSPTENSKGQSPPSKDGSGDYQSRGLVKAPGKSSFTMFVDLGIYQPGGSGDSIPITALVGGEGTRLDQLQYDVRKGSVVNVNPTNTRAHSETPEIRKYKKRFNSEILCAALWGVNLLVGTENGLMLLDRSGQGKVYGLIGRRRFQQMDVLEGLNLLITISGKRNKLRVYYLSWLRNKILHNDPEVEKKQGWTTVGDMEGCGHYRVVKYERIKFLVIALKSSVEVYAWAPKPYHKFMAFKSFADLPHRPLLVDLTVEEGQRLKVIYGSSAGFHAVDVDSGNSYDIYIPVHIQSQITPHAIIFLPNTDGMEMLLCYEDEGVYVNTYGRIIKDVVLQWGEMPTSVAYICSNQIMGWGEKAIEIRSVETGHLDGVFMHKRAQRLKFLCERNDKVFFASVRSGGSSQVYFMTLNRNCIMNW

[3] = target: Serine/threonine-protein kinase MARK1 (Homo sapiens) (UniProt Q9P0L2); experiment: Inhibition of MARK1 in human NCI-H929 cells at 10 uM by mass spectroscopic analysis relative to control; type: cell-based
Sequence of Serine/threonine-protein kinase MARK1 (Homo sapiens) (Q9P0L2 whole entry, looked up): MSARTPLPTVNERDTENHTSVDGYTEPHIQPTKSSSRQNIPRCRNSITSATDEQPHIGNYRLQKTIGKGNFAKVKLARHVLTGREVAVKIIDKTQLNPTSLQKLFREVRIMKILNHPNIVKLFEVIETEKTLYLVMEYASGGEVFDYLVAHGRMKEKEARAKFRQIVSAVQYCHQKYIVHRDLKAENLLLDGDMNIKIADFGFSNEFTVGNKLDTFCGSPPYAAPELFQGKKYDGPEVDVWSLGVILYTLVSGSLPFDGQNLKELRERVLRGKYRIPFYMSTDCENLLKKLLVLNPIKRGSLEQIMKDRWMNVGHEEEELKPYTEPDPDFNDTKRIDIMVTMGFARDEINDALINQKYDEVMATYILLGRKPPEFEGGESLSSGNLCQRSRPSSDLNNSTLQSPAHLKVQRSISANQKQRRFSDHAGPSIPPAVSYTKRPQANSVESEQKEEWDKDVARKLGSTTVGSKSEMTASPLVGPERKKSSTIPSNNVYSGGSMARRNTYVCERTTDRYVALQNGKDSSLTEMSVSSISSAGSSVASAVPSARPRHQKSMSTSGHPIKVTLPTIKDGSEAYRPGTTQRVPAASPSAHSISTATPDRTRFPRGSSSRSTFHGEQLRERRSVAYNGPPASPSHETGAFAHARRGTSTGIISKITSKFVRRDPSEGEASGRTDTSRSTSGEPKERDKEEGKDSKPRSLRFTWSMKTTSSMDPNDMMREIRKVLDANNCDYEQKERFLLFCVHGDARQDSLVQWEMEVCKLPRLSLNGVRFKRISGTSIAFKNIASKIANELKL

[4] = target: Cyclin-dependent kinase 11B (Homo sapiens) (UniProt P21127); experiment: Inhibition of PITSLRE in human NCI-H929 cells at 10 uM by mass spectroscopic analysis relative to control; type: cell-based
Sequence of Cyclin-dependent kinase 11B (Homo sapiens) (P21127 whole entry): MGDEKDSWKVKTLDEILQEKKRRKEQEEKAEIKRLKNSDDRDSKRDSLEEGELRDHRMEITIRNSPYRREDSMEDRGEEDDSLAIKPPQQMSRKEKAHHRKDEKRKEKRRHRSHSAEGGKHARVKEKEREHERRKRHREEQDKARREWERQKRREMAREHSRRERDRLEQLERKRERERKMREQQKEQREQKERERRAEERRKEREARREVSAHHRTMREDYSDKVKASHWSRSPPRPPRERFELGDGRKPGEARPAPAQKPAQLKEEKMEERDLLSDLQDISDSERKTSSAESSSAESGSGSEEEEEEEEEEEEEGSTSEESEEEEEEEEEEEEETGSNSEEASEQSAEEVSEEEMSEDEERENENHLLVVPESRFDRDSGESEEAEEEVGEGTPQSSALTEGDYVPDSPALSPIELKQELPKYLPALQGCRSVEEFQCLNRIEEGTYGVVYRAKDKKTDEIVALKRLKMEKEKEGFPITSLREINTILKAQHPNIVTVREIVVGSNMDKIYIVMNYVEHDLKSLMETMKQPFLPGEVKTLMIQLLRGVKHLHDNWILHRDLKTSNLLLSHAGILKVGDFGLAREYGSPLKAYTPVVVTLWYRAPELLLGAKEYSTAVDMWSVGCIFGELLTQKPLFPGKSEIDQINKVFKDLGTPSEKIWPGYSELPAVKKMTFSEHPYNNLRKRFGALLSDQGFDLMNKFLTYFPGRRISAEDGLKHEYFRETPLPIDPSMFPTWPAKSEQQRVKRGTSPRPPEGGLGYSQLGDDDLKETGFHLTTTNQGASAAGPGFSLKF

[5] = target: T2, NUAK family SNF1-like kinase 1 (Homo sapiens) (UniProt O60285); experiment: Inhibition of NuaK1 in human NCI-H929 cells at 10 uM by mass spectroscopic analysis relative to control; type: cell-based
T2 sequence (whole entry): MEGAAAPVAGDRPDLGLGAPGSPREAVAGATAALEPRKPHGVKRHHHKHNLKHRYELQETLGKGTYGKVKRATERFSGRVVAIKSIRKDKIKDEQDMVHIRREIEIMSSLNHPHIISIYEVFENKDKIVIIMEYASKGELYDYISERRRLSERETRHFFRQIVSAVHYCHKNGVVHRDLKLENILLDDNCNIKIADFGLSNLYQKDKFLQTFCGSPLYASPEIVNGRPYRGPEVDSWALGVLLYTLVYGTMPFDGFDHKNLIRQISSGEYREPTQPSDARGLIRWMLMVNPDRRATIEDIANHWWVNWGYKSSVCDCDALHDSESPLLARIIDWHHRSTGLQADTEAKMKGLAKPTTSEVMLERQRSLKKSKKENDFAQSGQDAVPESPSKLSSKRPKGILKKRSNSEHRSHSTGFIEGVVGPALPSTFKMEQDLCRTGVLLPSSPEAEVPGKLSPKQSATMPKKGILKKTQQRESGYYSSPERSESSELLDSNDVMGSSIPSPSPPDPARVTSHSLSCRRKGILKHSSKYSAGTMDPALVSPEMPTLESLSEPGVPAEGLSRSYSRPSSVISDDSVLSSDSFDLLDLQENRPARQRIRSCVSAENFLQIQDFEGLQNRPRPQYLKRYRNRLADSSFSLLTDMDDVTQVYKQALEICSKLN

[6] = target: Serine/threonine-protein kinase 26 (Homo sapiens) (UniProt Q9P289); experiment: Inhibition of MST4 in human NCI-H929 cells at 10 uM by mass spectroscopic analysis relative to control; type: cell-based
Sequence of Serine/threonine-protein kinase 26 (Homo sapiens) (Q9P289 2-416 limits assumed): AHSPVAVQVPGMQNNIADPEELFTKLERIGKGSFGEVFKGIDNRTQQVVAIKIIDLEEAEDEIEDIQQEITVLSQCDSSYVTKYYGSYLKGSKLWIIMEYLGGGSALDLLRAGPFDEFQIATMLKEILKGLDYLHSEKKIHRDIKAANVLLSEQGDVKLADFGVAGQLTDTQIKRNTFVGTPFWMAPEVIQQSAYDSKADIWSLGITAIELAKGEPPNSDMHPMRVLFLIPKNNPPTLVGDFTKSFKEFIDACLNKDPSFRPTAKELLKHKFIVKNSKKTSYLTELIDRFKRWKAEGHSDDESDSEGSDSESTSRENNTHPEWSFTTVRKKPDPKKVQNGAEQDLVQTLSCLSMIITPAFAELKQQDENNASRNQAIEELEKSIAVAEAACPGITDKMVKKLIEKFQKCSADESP

[7] = target: T3, Serine/threonine-protein kinase TAO3 (Homo sapiens) (UniProt Q9H2K8); experiment: Inhibition of TAO3 in human NCI-H929 cells at 10 uM by mass spectroscopic analysis relative to control; type: cell-based
T3 sequence (whole entry): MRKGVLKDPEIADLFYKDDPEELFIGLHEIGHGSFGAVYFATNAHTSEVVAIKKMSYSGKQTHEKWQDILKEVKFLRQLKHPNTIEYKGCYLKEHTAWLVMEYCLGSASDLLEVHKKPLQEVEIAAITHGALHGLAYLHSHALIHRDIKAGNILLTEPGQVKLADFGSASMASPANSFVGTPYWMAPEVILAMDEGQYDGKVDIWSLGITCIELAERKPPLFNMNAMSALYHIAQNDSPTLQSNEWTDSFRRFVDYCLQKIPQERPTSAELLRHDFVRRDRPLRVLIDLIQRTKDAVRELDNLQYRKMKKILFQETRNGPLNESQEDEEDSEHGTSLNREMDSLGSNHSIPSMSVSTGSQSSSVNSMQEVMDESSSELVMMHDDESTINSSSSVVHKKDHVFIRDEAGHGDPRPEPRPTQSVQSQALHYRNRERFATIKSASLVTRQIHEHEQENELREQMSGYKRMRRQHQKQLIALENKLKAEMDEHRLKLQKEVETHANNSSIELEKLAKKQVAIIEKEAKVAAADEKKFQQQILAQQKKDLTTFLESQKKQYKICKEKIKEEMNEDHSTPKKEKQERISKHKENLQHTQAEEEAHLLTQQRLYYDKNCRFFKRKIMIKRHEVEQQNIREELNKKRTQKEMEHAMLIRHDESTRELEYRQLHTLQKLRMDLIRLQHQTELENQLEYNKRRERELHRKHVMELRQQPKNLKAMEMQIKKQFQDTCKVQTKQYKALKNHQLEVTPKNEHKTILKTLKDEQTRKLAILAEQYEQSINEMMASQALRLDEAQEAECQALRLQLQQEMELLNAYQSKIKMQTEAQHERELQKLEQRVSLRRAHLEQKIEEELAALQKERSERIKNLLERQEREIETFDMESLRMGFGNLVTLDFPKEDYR

SMILES | Activity (MM1.S) | inhibition [1] | inhibition [2] | inhibition [3] | inhibition [4] | inhibition [5] | inhibition [6] | inhibition [7]
Nc1ncc(-c2cccc3ncsc23)cc1-c1ccc2c(c1)CCNC2=O | Active | 0% | > 90% | 0% | 0% | < 90% | 0% | 0%
Nc1ncc(-c2cccc([N+](=O)[O-])c2F)cc1-c1ccc2c(c1)CCNC2=O | Active | 0% | > 90% |  |  |  | 0% | 
CN(C1CC1)S(=O)(=O)c1ccc(-c2cnc(N)c(-c3ccc4c(c3)CCNC4=O)c2)c(F)c1 | Active | 0% | > 90% | 0% | 0% | 50% | < 90% | 
Nc1ncc(-c2ccc(NS(=O)(=O)C3CC3)cc2OC2CCCCC2)cc1-c1ccc2c(c1)CCNC2=O |  |  | 50% | 0% | 0% | 50% |  | 0%
Nc1ncc(-c2ccc(NS(=O)(=O)C3CC3)cc2F)cc1-c1ccc2c(c1)CCNC2=O |  | 0% |  | 0% | 0% |  | < 75% | 
COc1cc(NS(=O)(=O)C2CC2)ccc1-c1cnc(N)c(-c2ccc3c(c2)CCNC3=O)c1 |  | 0% | 50% | 0% | 0% |  |  | 0%
